Key:
[1] = In vivo toxicity, mouse weight after single i.p. injection (FIG. 19); details: up to 100 mg/kg
From the text: In particular, one parameter for testing toxicity is a weight loss of greater the […] of the body weight of a test mouse.

MDR3 = assay: Sensitization to doxorubicin of cells expressing multidrug transporter MDR3; format: cell-based; details: ratio of LD50
Method: (§1) Fold of sensitization is calculated as a ratio of LD50 in the presence and in the absence of the inhibitor compound (see FIG. 6).
(§2) Fold of sensitization again is calculated as the ratio of LD50 in the presence and in the absence of the inhibitor compound (see FIG. 6).

NB cells = assay: Direct toxicity toward NB cell lines (FIG. 18); format: cell-based; details: different lots of compound
MRP1 [2] = target: T1, MRP1 (Homo sapiens, UniProt P33527); assay: Sensitization to doxorubicin of cells expressing multidrug transporter MRP1; format: cell-based; details: ratio of LD50
T1 construct: MCF7/VP breast cancer cells (24), which have amplified and overexpressed MRP1, but negligible Pgp expression; endogenous in cells; host or cells: MCF7/VP (MCF7/VP clone 14) breast cancer cells
T1 sequence (P33527 whole entry): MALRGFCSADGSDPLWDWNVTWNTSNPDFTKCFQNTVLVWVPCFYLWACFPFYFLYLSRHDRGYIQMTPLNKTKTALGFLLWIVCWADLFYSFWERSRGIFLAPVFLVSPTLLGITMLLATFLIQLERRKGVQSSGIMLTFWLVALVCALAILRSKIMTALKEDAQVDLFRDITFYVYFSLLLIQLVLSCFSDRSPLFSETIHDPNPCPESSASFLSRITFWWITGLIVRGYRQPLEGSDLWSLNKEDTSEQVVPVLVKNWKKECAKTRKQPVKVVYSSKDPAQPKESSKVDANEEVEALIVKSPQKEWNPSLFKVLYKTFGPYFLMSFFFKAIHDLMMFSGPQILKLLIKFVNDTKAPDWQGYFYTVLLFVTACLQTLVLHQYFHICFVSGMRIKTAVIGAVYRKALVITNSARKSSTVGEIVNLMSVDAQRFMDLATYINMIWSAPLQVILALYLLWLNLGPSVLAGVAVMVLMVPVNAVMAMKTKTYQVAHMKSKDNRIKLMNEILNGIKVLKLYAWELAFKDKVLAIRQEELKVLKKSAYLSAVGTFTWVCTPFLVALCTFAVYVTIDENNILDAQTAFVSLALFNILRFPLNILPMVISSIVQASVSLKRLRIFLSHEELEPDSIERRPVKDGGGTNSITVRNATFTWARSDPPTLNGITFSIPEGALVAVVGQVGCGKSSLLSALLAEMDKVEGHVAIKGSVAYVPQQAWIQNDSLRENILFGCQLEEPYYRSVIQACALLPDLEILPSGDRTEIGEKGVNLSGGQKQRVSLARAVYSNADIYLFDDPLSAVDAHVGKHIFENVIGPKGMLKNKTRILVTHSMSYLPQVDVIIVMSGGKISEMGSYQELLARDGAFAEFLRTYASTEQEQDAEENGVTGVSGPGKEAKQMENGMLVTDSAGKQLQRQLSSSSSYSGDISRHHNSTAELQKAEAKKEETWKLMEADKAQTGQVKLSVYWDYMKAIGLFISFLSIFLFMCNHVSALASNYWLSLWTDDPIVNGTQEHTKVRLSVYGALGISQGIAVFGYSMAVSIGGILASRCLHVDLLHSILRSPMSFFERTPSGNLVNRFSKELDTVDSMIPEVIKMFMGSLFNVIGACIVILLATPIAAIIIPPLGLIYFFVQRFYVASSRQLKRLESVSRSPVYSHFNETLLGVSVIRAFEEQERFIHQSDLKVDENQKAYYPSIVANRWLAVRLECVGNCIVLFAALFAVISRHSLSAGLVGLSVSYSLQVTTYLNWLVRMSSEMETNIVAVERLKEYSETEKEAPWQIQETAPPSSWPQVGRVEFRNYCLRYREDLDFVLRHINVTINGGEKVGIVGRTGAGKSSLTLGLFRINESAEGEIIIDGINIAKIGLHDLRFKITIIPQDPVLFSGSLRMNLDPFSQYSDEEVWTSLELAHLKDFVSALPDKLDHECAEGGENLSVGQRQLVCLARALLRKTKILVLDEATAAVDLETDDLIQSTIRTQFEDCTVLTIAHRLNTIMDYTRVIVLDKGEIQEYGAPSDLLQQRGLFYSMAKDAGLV
Method: as §1, §2

MDR1 = MDR1 (Homo sapiens, UniProt P08183)
MDR1, sequence (P08183 whole entry): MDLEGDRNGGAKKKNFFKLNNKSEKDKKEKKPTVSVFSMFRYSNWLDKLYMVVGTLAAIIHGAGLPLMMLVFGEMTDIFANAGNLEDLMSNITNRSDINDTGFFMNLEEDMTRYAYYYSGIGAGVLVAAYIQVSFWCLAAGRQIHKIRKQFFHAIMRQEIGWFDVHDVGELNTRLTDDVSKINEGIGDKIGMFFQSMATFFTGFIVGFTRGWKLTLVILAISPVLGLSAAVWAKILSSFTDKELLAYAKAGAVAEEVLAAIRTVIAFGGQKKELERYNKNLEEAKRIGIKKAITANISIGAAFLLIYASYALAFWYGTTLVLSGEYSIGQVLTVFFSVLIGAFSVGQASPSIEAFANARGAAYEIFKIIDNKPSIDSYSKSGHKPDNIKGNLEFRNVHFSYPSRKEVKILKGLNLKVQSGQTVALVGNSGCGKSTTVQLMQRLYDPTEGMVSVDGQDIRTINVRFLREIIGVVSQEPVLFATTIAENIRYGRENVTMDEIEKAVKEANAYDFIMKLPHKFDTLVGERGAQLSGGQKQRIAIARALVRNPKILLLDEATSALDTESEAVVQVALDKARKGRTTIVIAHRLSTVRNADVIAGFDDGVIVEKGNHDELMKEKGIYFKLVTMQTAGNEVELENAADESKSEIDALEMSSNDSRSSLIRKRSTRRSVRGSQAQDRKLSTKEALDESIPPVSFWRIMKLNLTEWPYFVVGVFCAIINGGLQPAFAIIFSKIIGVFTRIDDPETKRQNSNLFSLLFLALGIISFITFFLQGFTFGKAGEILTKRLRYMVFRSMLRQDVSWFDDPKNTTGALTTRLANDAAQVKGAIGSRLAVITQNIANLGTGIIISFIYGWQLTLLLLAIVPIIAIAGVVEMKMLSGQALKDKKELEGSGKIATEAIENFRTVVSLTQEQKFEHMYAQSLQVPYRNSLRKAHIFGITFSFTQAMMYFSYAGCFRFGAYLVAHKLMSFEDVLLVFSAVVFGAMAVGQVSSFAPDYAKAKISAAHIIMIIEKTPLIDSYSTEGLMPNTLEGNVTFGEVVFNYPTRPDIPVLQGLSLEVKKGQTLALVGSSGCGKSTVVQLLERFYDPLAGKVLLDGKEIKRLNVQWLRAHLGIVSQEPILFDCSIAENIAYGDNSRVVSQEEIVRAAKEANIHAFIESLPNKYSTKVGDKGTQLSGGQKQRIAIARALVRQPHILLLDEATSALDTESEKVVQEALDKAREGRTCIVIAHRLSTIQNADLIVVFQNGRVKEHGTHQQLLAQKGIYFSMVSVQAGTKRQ
Method: as §1, §2

MCF7/VP cells = assay: Sensitization of MRP1-expressing MCF7/VP cells to chemotherapeutic drugs (methylene blue assay); format: cell-based; details: for folds of sensitization of MCF7/VP cells to cisplatin: cisplatin is not an MRP1 substrate; for folds of sensitization of MCF7/VP cells to doxorubicin / folds of sensitization of MCF7/VP cells to etoposide / folds of sensitization of MCF7/VP cells to vincristine: ratio of LD50 in the presence and in the absence of the compound
Method: Cells in 96-well plates (5×10^3 per well) were incubated with different concentrations of vincristine in the presence of 5 μM of the candidate compounds for 3 days. Cell numbers then were estimated using methylene blue assay. […] Verapamil (10 μM) was used as control.
FIG. 6 illustrates the effect of the identified inhibitor compounds on cell sensitivity to doxorubicin and vincristine. Cells (with or without MRP1 expression) were incubated 24 hours with the indicated concentrations of vincristine or doxorubicin followed by incubation for additional 48 hours in drugfree media. Cell numbers were quantified by standard methylene blue assay.
as §1
FIG. 8 illustrates the effects of the identified inhibitor compounds on sensitivity of MRP1-positive and MRP1-negative cells to vincristine. Fold of sensitization again is calculated as the ratio of LD50 in the presence and in the absence of the inhibitor compound (see FIG. 6).
FIG. 9 illustrates the effects of the identified inhibitor compounds on sensitivity of MRP1-positive and MRP1-negative cells to etoposide. Fold of sensitization again is calculated as the ratio of LD50 in the presence and in the absence of the inhibitor compound (see FIG. 6).
FIG. 10 illustrates the effects of the identified inhibitor compounds on sensitivity of MRP1-positive and MRP1-negative cells to taxol and cisplatin. Fold of sensitization again is calculated as the ratio of LD50 in the presence and in the absence of the inhibitor compound (see FIG. 6).

MRP1 [3] = target: T1, MRP1; assay: Dose dependence of drug sensitization effect, 4H10 vs MK571 (FIG. 14); format: cell-based; details: three different lots of 4H10
NB = assay: In vivo efficacy in mouse model of NB in combination with chemotherapeutic agents (FIG. 20)
From the text: The test was a clinically relevant mouse model of NB that closely reflects the human disease (n=10, unless otherwise noted).

MRP1 [4] = target: T1, MRP1; assay: Daunorubicin retention / efflux assay (FIG. 12); format: cell-based; details: daunorubicin 2 hours with compound, then 1 hour drug-free medium; retained daunorubicin
Method: FIG. 12 classifies the identified inhibitor compounds according to their strength as inhibitors of […] by MRP1. Cells were treated with daunorubicin in the presence of a test compound or a control for 2 hours, followed by incubation in fresh drug-free medium for 1 hour. Retained daunorubicin levels were measured to determine the effect of the inhibitor compounds on efflux activities.

MRP2 = MRP2 (Homo sapiens, UniProt Q92887); assay: Sensitization to doxorubicin of cells expressing multidrug transporter MRP2; format: cell-based; details: ratio of LD50
MRP2, sequence (Q92887 whole entry, species assumed): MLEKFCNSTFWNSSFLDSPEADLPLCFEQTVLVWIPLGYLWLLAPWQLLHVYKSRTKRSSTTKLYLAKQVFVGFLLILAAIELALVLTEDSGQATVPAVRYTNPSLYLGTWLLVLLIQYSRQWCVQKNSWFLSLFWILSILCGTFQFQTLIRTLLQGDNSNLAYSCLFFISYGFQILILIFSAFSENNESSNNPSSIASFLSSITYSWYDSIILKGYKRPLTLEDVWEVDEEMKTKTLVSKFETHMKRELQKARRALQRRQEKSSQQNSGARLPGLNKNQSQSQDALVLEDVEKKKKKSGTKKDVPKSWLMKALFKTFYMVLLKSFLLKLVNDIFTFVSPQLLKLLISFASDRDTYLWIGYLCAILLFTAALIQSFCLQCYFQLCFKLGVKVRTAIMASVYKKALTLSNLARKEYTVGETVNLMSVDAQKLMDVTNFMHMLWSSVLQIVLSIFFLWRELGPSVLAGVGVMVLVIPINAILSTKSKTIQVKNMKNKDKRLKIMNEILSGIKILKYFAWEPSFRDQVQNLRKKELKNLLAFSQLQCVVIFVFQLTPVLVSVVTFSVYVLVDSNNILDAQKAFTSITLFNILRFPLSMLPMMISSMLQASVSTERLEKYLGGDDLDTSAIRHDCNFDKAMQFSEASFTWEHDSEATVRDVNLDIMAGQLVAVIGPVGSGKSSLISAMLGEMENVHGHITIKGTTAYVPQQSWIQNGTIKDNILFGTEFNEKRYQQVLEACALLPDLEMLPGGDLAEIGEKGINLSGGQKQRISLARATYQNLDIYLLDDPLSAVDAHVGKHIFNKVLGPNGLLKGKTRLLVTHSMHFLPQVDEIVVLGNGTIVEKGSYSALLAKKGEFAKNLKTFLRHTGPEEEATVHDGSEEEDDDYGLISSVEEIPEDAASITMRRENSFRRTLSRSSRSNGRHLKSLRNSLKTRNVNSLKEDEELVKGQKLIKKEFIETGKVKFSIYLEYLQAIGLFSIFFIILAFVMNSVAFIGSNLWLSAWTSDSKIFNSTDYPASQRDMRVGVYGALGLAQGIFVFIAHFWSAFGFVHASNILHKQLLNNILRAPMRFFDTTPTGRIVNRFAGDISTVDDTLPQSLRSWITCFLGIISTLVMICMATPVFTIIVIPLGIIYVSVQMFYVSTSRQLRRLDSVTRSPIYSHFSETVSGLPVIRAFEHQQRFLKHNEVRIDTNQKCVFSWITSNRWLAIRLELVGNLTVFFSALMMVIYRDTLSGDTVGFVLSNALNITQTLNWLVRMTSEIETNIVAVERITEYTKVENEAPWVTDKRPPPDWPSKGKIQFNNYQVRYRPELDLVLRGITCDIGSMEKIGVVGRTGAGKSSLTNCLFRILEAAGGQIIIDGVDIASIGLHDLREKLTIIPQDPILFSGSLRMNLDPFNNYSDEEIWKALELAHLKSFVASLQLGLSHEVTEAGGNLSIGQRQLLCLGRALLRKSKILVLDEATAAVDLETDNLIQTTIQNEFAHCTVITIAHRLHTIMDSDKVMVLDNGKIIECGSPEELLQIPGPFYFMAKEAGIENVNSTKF
Method: as §1, §2

GL15 and 8 MG cell lines = details: both glioma cell lines; cited from earlier work

For `O=C(NCCCN1CCOCC1)c1cnn2c(-c3ccccc3)cc(-c3ccccc3)nc12` [Compound 4H10], the “effect on mouse weight” value ([1]; 30 days) was “did not adversely affect mouse weight”, the in vivo toxicity ([1]; 30 days of observation) was “lack of in vivo toxicity” and the “folds of sensitization of doxorubicin, cells expressing MDR3” value (from here on “folds … cells expressing MDR3”) (MDR3) was 0.9 folds. The “direct toxicity against NB cells” value (NB cells) was “no direct toxicity”, the “folds of sensitization of doxorubicin, cells expressing MRP1” value (“folds … cells expressing MRP1” below) (MRP1 [2]) was 4.1 folds and the “folds of sensitization of doxorubicin, cells expressing MDR1” value (shortened to “folds … cells expressing MDR1”) (MDR1) was 4.5 folds. For the same molecule, the “folds of sensitization of MCF7/VP cells to cisplatin” value (“folds … to cisplatin” for short) (MCF7/VP cells) was 1.2 folds, the “folds of sensitization of MCF7/VP cells to doxorubicin” value (“folds … to doxorubicin” for short) (MCF7/VP cells) was 3.8 folds and the “folds of sensitization of MCF7/VP cells to etoposide” value (shortened to “folds … to etoposide”) (MCF7/VP cells) was 58 folds. For the same molecule, the “folds of sensitization of MCF7/VP cells to vincristine” value (from here on “folds … to vincristine”) (MCF7/VP cells) was 14.2 folds, the “concentrations showing drug sensitization effect” value (MRP1 [3]) was “submicromolar” and the “effectiveness compared with BSO” value (NB) was “much more effective than BSO”. The “strength as inhibitor of daunorubicin efflux by MRP1” value (MRP1 [4]) was “most potent inhibitor” and the “folds of sensitization of doxorubicin, cells expressing MRP2” value (shortened to “folds … cells expressing MRP2”) (MRP2) was 3.3 folds.
For `COc1ccc2c(c1)c(CC(=O)O)c(C)n2C(=O)c1ccc(Cl)cc1` [Indomethacin], the “accumulation of vincristine and etoposide” value (GL15 and 8 MG cell lines) is given as “increased the accumulation”.
In the case of `CC(Sc1nnc(-c2ccco2)n1-c1ccccc1)C(=O)NC(c1ccccc1)c1ccccc1` (stereo not shown) [Compound 4G05], the “folds … cells expressing MDR3” value (MDR3) is reported as 2.4 folds, the “folds … cells expressing MRP1” value (MRP1 [2]) is reported as 1.75 folds and the “folds … cells expressing MDR1” value (MDR1) is reported as 4.6 folds. For the same molecule, the “folds … to cisplatin” value (MCF7/VP cells) was 1.1 folds, the “folds … to doxorubicin” value (MCF7/VP cells) was 1.6 folds and the “folds … to etoposide” value (MCF7/VP cells) was 2 folds. For the same molecule, the “folds … to vincristine” value (MCF7/VP cells) was 3 folds and the “folds … cells expressing MRP2” value (MRP2) was 1.5 folds.
With `c1ccc(-c2cn3c4ccccc4nc3n2CCN2CCCCC2)cc1` [Compound 14C08] the “folds … cells expressing MDR3” value (MDR3) was 0.6 folds, the “folds … cells expressing MRP1” value (MRP1 [2]) was 3.0 folds and the “folds … cells expressing MDR1” value (MDR1) was 3.7 folds. For the same molecule, the “folds … to cisplatin” value (MCF7/VP cells) was 1.05 folds, the “folds … to doxorubicin” value (MCF7/VP cells) was 4.0 folds and the “folds … to etoposide” value (MCF7/VP cells) was 18 folds. For the same molecule, the “folds … to vincristine” value (MCF7/VP cells) was 14 folds and the “folds … cells expressing MRP2” value (MRP2) was 1.3 folds.
In the case of `CCN(CC)CCCNC(=O)c1cnn2c(C(F)(F)F)cc(-c3ccc(C)cc3)nc12` [Compound 4E10], the “folds … cells expressing MDR3” value (MDR3) is reported as 0.6 folds, the “folds … cells expressing MRP1” value (MRP1 [2]) is reported as 3.7 folds and the “folds … cells expressing MDR1” value (MDR1) is reported as 2.0 folds. For the same molecule, the “folds … to cisplatin” value (MCF7/VP cells) was 1.25 folds, the “folds … to doxorubicin” value (MCF7/VP cells) was 3.2 folds and the “folds … to etoposide” value (MCF7/VP cells) was 27 folds. The “folds … to vincristine” value (MCF7/VP cells) was 12 folds and the “folds … cells expressing MRP2” value (MRP2) was 7 folds.
For `Cc1nnc(SCC(=O)N/N=C/c2cccc3cccnc23)n1-c1ccccc1` [Compound 17A08], the “folds … cells expressing MDR3” value (MDR3) was 1.3 folds, the “folds … cells expressing MRP1” value (MRP1 [2]) was 1.1 folds and the “folds … cells expressing MDR1” value (MDR1) was 2 folds. For the same molecule, the “folds … to cisplatin” value (MCF7/VP cells) was 1.1 folds, the “folds … to doxorubicin” value (MCF7/VP cells) was 3.6 folds and the “folds … to etoposide” value (MCF7/VP cells) was 5 folds. The “folds … to vincristine” value (MCF7/VP cells) was 3 folds and the “folds … cells expressing MRP2” value (MRP2) was 1.4 folds.
For `O=C(NCCN1CCOCC1)c1cnn2c(-c3ccccc3)cc(-c3ccccc3)nc12` [Compound 4E11], the “folds … cells expressing MDR3” value (MDR3) was 0.7 folds, the “folds … cells expressing MRP1” value (MRP1 [2]) was 3.9 folds and the “folds … cells expressing MDR1” value (MDR1) was 4.2 folds. The “folds … to cisplatin” value (MCF7/VP cells) was 1.1 folds, the “folds … to doxorubicin” value (MCF7/VP cells) was 2.7 folds and the “folds … to etoposide” value (MCF7/VP cells) was 34 folds. For the same molecule, the “folds … to vincristine” value (MCF7/VP cells) was 10.5 folds and the “folds … cells expressing MRP2” value (MRP2) was 6.5 folds.
For `CCCN(CCC)S(=O)(=O)c1ccc(C(=O)O)cc1` [probenecid], the “accumulation of vincristine and etoposide” value (GL15 and 8 MG cell lines) is listed as “increased the accumulation”.
In the case of `C=CCSc1nnc2n(-c3ccccc3)c(=O)c3c4c(sc3n12)CCC4` [Compound 9C06], the “folds … cells expressing MDR3” value (MDR3) is reported as 0.4 folds, the “folds … cells expressing MRP1” value (MRP1 [2]) is reported as 3.3 folds and the “folds … cells expressing MDR1” value (MDR1) is reported as 3.7 folds. The “folds … to cisplatin” value (MCF7/VP cells) was 1.5 folds, the “folds … to doxorubicin” value (MCF7/VP cells) was 3.3 folds and the “folds … to etoposide” value (MCF7/VP cells) was 12 folds. For the same molecule, the “folds … to vincristine” value (MCF7/VP cells) was 16 folds and the “folds … cells expressing MRP2” value (MRP2) was 4.3 folds.

— patent US8318724B2, “Small molecule inhibitors of MRP1 and other multidrug transporters” (The Cleveland Clinic Foundation, priority 2004, dated 2012)
